Tests used:
Assay type in all cases: cell-based
[1] = target: T1, GABA-A receptor; alpha-3/beta-3/gamma-2 (Homo sapiens, UniProt P18507+P28472+P34903); assay: Inhibition of [3H]Ro-151788 binding to recombinant human gamma-aminobutyric-acid A receptor alpha-3-beta-3-gamma-2 subtype expressed in L (tk-) cells
T1 sequence (P18507 whole entry): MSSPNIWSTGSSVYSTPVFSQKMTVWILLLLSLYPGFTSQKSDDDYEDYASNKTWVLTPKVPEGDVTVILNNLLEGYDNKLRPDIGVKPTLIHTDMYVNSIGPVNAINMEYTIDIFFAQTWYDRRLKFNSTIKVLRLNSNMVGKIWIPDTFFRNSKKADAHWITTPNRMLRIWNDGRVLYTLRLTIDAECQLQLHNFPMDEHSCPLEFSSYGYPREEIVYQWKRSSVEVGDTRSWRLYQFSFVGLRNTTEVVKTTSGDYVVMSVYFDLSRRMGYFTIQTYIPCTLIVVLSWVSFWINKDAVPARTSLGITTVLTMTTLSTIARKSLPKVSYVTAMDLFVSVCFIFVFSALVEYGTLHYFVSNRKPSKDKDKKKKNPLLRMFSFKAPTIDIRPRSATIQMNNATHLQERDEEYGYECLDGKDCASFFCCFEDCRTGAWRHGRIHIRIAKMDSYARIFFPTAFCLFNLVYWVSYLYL
T1 sequence (P28472 whole entry): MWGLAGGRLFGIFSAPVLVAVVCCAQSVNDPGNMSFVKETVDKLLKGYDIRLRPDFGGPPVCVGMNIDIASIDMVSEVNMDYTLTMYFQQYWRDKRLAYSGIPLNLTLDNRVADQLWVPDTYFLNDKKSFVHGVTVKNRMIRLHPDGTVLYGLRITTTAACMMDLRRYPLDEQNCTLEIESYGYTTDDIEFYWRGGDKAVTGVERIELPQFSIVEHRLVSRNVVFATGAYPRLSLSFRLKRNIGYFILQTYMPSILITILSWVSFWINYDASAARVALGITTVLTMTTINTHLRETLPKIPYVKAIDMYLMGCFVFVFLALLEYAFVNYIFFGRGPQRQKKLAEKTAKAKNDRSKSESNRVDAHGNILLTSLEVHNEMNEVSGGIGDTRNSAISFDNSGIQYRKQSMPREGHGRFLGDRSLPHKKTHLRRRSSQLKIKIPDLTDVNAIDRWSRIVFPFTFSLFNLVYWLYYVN
T1 sequence (P34903 whole entry): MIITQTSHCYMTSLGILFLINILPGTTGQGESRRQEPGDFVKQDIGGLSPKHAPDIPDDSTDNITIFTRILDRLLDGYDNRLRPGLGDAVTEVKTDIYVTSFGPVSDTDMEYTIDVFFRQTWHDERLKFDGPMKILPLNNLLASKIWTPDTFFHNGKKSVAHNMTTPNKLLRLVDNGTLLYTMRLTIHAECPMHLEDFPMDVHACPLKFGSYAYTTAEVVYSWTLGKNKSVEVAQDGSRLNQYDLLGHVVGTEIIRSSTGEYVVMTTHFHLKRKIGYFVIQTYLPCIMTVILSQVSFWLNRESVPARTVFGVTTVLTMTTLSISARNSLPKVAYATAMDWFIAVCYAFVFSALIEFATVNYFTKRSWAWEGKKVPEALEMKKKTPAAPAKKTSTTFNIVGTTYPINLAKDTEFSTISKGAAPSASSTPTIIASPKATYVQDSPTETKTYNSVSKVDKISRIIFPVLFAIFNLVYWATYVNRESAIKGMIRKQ

[2] = target: T2, GABA-A receptor; alpha-2/beta-3/gamma-2 (Homo sapiens, UniProt P18507+P28472+P47869); assay: Inhibition of [3H]Ro-151788 binding to recombinant human gamma-aminobutyric acid A receptor alpha-2-beta-3-gamma-2 subtype expressed in L (tk-) cells
T2 sequence (P18507 whole entry): T1 sequence (P18507 whole entry)
T2 sequence (P28472 whole entry): T1 sequence (P28472 whole entry)
T2 sequence (P47869 whole entry): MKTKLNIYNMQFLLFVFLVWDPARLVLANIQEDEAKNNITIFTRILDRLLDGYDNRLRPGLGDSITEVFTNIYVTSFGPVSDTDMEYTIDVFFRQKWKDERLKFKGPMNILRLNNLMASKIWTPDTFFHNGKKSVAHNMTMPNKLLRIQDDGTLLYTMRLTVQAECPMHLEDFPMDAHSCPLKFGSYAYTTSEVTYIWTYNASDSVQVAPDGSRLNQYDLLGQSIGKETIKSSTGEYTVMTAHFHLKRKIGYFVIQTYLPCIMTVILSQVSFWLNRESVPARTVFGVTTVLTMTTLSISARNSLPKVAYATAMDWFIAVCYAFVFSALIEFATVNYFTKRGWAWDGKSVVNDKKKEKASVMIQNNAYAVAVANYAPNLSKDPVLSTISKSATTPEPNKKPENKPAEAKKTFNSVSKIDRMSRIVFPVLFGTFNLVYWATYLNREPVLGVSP

[3] = target: T3, GABA-A receptor; alpha-5/beta-3/gamma-2 (Homo sapiens, UniProt P18507+P28472+P31644); assay: Inhibition of [3H]Ro-151788 binding to recombinant human gamma-aminobutyric-acid A receptor alpha-5-beta-3-gamma-2 subtype expressed in L (tk-) cells
T3 sequence (P18507 whole entry): T1 sequence (P18507 whole entry)
T3 sequence (P28472 whole entry): T1 sequence (P28472 whole entry)
T3 sequence (P31644 whole entry): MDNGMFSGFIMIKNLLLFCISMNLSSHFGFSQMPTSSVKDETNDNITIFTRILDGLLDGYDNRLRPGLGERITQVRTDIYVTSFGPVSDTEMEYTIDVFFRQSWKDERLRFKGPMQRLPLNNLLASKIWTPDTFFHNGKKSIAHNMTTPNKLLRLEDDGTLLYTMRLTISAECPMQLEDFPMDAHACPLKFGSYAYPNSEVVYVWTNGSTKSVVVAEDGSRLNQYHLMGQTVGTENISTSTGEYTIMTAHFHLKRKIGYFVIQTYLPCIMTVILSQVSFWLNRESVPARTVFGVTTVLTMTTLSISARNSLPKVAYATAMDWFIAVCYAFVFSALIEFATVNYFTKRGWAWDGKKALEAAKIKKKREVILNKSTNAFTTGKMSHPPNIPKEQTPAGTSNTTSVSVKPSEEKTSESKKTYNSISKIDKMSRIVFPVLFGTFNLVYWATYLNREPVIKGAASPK

[4] = target: T4, GABA-A receptor; alpha-1/beta-3/gamma-2 (Homo sapiens, UniProt P14867+P18507+P28472); assay: Inhibition of [3H]Ro-151788 binding to recombinant human gamma-aminobutyric-acid A receptor alpha-1-beta-3-gamma-2 subtype expressed in L (tk-) cells
T4 sequence (P14867 whole entry): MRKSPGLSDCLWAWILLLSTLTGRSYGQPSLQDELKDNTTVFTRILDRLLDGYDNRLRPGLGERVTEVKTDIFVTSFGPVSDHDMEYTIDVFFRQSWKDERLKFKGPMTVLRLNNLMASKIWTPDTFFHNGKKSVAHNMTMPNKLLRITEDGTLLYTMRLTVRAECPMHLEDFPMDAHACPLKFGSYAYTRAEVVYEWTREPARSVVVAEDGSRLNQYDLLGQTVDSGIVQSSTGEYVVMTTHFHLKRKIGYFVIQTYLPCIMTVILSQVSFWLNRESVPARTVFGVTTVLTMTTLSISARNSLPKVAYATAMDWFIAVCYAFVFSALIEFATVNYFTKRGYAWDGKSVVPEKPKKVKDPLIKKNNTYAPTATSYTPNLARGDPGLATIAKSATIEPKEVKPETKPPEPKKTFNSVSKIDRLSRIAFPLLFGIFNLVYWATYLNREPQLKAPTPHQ
T4 sequence (P18507 whole entry): T1 sequence (P18507 whole entry)
T4 sequence (P28472 whole entry): T1 sequence (P28472 whole entry)

SMILES	Ki [1] [nM]	Ki [2] [nM]	Ki [3] [nM]	Ki [4] [nM]
OCC1CCC(COc2nn3c(-c4ccccc4)nnc3c3c2C2CCC3CC2)CC1 (trans isomer)	57	77	41	150
Fc1ccc(-c2nnc3c4c(c(OCc5ccccn5)nn23)C2CCC4CC2)cc1	–	180	27	310
CN1CCCCC1COc1nn2c(-c3ccccc3)nnc2c2c1C1CCC2CC1 (centres undefined)	> 1000	> 1000	> 1000	> 1000
CCO[n+]1ccccc1Oc1nn2c(-c3ccccc3)nnc2c2c1C1CCC2CC1	550	390	64	> 1000
c1ccc(-c2nnc3c4c(c(OCc5ccco5)nn23)C2CCC4CC2)cc1	> 500	> 500	> 500	> 500
c1ccc(-c2nnc3c4c(c(OCc5cccs5)nn23)C2CCC4CC2)cc1	> 500	> 500	> 500	> 500
COc1ccccc1-c1nnc2c3c(c(OCc4ccccn4)nn12)C1CCC3CC1	> 1000	> 1000	170	> 1000
OCc1cccc(COc2nn3c(-c4ccccc4)nnc3c3c2C2CCC3CC2)c1	43	110	11	490
O=C(Nc1ccccn1)c1nn2c(-c3ccccc3)nnc2c2c1C1CCC2CC1	170	290	40	> 1000
CSOc1ccc(COc2nn3c(-c4ccccc4)nnc3c3c2C2CCC3CC2)cc1	31	41	7.6	96
Cc1conc1COc1nn2c(-c3ccccc3)nnc2c2c1C1CCC2CC1	18	35	2.7	80
c1ccc(-c2nnc3c4c(c(OCc5nnc[nH]5)nn23)C2CCC4CC2)cc1	19	25	2.8	43
c1ccc(-c2nnc3c4c(c(OCc5ncccn5)nn23)C2CCC4CC2)cc1	33	68	9.2	87
Cc1noc(COc2nn3c(-c4ccccc4)nnc3c3c2C2CCC3CC2)n1	51	250	12	290
N#Cc1ccccc1COc1nn2c(-c3ccccc3)nnc2c2c1C1CCC2CC1	53	83	2.6	190
c1ccc(-c2nnc3c4c(c(COc5ccccn5)nn23)C2CCC4CC2)cc1	120	230	58	440
c1ccc(-c2nnc3c4c(c(CNc5ccccn5)nn23)C2CCC4CC2)cc1	> 1000	> 1000	> 1000	> 1000
c1ccc(-c2nnc3c4c(c(Oc5cccnc5)nn23)C2CCC4CC2)cc1	> 500	> 500	> 500	> 500
Cc1cccc(-c2nnc3c4c(c(OCc5ccccn5)nn23)C2CCC4CC2)c1	140	210	17	570
Cc1ccc(-c2nc3ccc(C)cn3c2CC(=O)N(C)C)cc1 [ZOLPIDEM]	246	103	> 3330	–
Cc1ccccc1-c1nnc2c3c(c(OCc4ccccn4)nn12)C1CCC3CC1	280	280	22	> 1000
Cc1cc(COc2nn3c(-c4ccccc4)nnc3c3c2C2CCC3CC2)sn1	99	130	11	210
Cn1nnc(COc2nn3c(-c4ccccc4)nnc3c3c2C2CCC3CC2)n1	37	57	6.5	60
CN1CCCC(COc2nn3c(-c4ccccc4)nnc3c3c2C2CCC3CC2)C1 (centres undefined)	460	260	100	750

From ChEMBL document CHEMBL1142695, “Discovery of functionally selective 7,8,9,10-tetrahydro-7,10-ethano-1,2,4-triazolo[3,4-a]phthalazines as GABA A receptor agonists at the alpha3 subunit” (J Med Chem, 2005)
